Consider 62 molecules from patent publication US10391095B2, “DNA-PK inhibitors” (Vertex Pharmaceuticals Incorporated, priority 2012, dated 2019).

The structures appear in SMILES notation.

For orientation: Ki means the dissociation constant of the complex between target and ligand, obtained from inhibition or displacement.

This assay concerns the target DNA-PK (Homo sapiens, UniProt P78527). Kind of assay: DNA-PK inhibition assay (radiometric, 33P-ATP). Type of assay: biochemical. The settings on record: 100 μM ATP, competitive tight-binding fit. The method, then:
Compounds were screened for their ability to inhibit DNA-PK kinase using a standard radiometric assay. Briefly, in this kinase assay the transfer of the terminal ^33P-phosphate in ^33P-ATP to a peptide substrate is interrogated. The assay was carried out in 384-well plates to a final volume of 50 μL per well containing approximately 6 nM DNA-PK, 50 mM HEPES (pH 7.5), 10 mM MgCl2, 25 mM NaCl, 0.01% BSA, 1 mM DTT, 10 μg/mL sheared double-stranded DNA (obtained from Sigma), 0.8 mg/mL DNA-PK peptide ([…] obtained from American Peptide), and 100 μM ATP. Accordingly, compounds of the invention were dissolved in DMSO to make 10 mM initial stock solutions. Serial dilutions in DMSO were then made to obtain the final solutions for the assay. A 0.75 μL aliquot of DMSO or inhibitor in DMSO was added to each well, followed by the addition of ATP substrate solution containing ^33P-ATP (obtained from Perkin Elmer). The reaction was started by the addition of DNA-PK, peptide and ds-DNA. After 45 min, the reaction was quenched with 25 μL of 5% phosphoric acid. The reaction mixture was transferred to MultiScreen HTS 384-well PH plates (obtained from Millipore), allowed to bind for one hour, and washed three times with 1% phosphoric acid. Following the addition of 50 μL of Ultima Gold™ high efficiency scintillant (obtained from Perkin Elmer), the samples were counted in a Packard TopCount NXT Microplate Scintillation and Luminescence Counter (Packard BioScience). The Ki values were calculated using Microsoft Excel Solver macros to fit the data to the kinetic model for competitive tight-binding inhibition.

Take `CCCn1ccc2cc(-c3cc(NCCc4ccccc4OC)ncn3)cnc21` [Compound 36]: the Ki is < 30 nM.

On to `COc1ccccc1[C@H](C)CNc1cc(-c2cnc3c(ccn3C)c2)ncn1` [Compound 173], for which the Ki was < 30 nM.

For the molecule `Cc1ccc(-c2cc(NCC(C)c3cccc4nc(C)c(C)nc34)ncn2)cn1` (centres unmarked) [Compound 434], the Ki is < 30 nM.

As for `CNC(=O)c1ccnc2c([C@H](C)CNc3cc(-c4cnc(N5CCCC(O)C5)nc4)ncn3)cccc12` (some centres unmarked) [Compound 728], the Ki is < 30 nM.

Take `CNC(=O)c1ccnc2c([C@H](C)CNc3cc(-c4ccnc(NC5CC5)c4)ncn3)cccc12` [Compound 894]: the Ki was < 30 nM.

On to `COc1ccccc1[C@H](C)CNc1cc(-c2cnc3c(cnn3C)c2)ncn1` [Compound 172], for which the Ki was < 30 nM.

As to `CNC(=O)c1ccnc2c([C@H](C)CNc3cc(-c4cnc(OC5COC5)nc4)ncn3)cccc12` [Compound 666], the Ki is < 30 nM.

`CNC(=O)c1ncnc2c([C@H](C)CNc3cc(-c4cnc(C)nc4)ncn3)cccc12` [Compound 976]: the Ki was < 30 nM.

`CNC(=O)c1ccnc2c([C@H](C)CNc3cc(-c4cc(C)nc(OC)c4)ncn3)cccc12` [Compound 863]: the Ki was < 30 nM.

For the molecule `CNC(=O)c1ccnc2c([C@H](C)CNc3cc(-c4ccc(NCc5cocn5)nc4)ncn3)cccc12` [Compound 712], the Ki was < 30 nM.

For the molecule `[2H]c1nc(NC[C@@H](C)c2cccc3c(C(=O)NC)ccnc23)cc(-c2ccc(C)nc2)n1` [Compound 604], the Ki was < 30 nM.

In the case of `CNC(=O)c1ccnc2c([C@H](C)CNc3cc(-c4cnc(N)c(CO)c4)ncn3)cccc12` [Compound 970], the Ki is < 30 nM.

As to `CNC(=O)c1ccc([C@H](C)CNc2cc(-c3ccc(C)nc3)ncn2)c(OC2CCC2)c1` [Compound 478], the Ki is < 30 nM.

As for `CNC(=O)c1ccnc2c([C@H](C)CNc3cc(-c4cnc(OC)c(CO)c4)ncn3)cccc12` [Compound 882], the Ki is < 30 nM.

Regarding `C[C@H](CNc1cc(-c2ccc(N)nc2)ncn1)c1ccnc2c1OCCO2` [Compound 459], the Ki is < 30 nM.

Turning to `CNC(=O)c1ccnc2c([C@H](C)CNc3cc(-c4ccc5c(c4)CCO5)ncn3)cccc12` [Compound 842], the Ki was < 30 nM.

For the molecule `CNC(=O)c1ccnc2c([C@H](C)CNc3cc(-c4cnc(OC)c(N)c4)ncn3)ccc(F)c12` [Compound 910], the Ki is < 30 nM.

For the molecule `CNC(=O)c1ccc([C@H](C)CNc2cc(-c3cnc4c(ccn4CC4CC4)c3)ncn2)c(OC)c1` [Compound 253], the Ki is < 30 nM.

For `CNC(=O)c1c(F)cnc2c([C@H](C)CNc3cc(-c4cnc5c(c4)OCCO5)ncn3)cccc12` [Compound 937], the Ki was < 30 nM.

As for `CC(O)Cn1ncc2cc(-c3cc(NC[C@@H](C)c4ccnc5c4OCCO5)ncn3)cnc21` (single isomer, unassigned) [Compound 503], the Ki was < 30 nM.

With `CNC(=O)c1c(F)cnc2c([C@H](C)CNc3cc(-c4cnc(OC)c(N)c4)ncn3)cccc12` [Compound 902], the Ki is < 30 nM.

In the case of `CNC(=O)c1ccnc2c([C@H](C)CNc3cc(-c4cnc(CO)c(OC)c4)ncn3)cccc12` [Compound 821], the Ki is < 30 nM.

As for `CNC(=O)c1ccc(C(C)CNc2cc(-c3ccc(OCC4CC4)nc3)ncn2)c(OC)c1` (centres unmarked) [Compound 326], the Ki was < 30 nM.

As for `CNc1ncc(-c2cc(NC[C@@H](C)c3ccccc3OC)ncn2)cn1` [Compound 137], the Ki is < 30 nM.

In the case of `CNC(=O)c1ccnc2c([C@H](C)CNc3cc(-c4ccc(NC(=O)OC)cc4)ncn3)cccc12` [Compound 750], the Ki is < 30 nM.

`C[C@H](CNc1cc(-c2ccc3ncccc3c2)ncn1)c1ccnc2c1OCCO2` [Compound 464]: the Ki was < 30 nM.

For the molecule `CNC(=O)c1c(F)cnc2c([C@H](C)CNc3cc(-c4cncc(C)c4)ncn3)cccc12` [Compound 772], the Ki is < 30 nM.

In the case of `COc1ccccc1[C@H](C)CNc1cc(-c2cnc3c(cnn3C3COC3)c2)ncn1` [Compound 179], the Ki is < 30 nM.

For `Cc1ccc(-c2cc(NCC(C)c3cccc4cccnc34)ncn2)cn1` (centres unmarked) [Compound 235], the Ki is < 30 nM.

On to `[2H]C([2H])([2H])NC(=O)c1ccnc2c([C@H](C)CNc3cc(-c4ccc(C)nc4)ncn3)cccc12` [Compound 549], for which the Ki is < 30 nM.

Regarding `CCOc1ccccc1CCNc1cc(-c2ccc(N3CC[C@@H](O)C3)nc2)ncn1` [Compound 99], the Ki is < 30 nM.

Regarding `CCC(CO)Nc1ccc(-c2cc(NC[C@@H](C)c3cccc4c(C(=O)NC)ccnc34)ncn2)cn1` (some centres unmarked) [Compound 724], the inhibition constant Ki is < 30 nM.

As for `CCCNCCNc1ccc(-c2cc(NC[C@@H](C)c3cccc4c(C(=O)NC)ccnc34)ncn2)cn1` [Compound 705], the Ki is < 30 nM.

Consider `CNC(=O)c1ccnc2c([C@H](C)CNc3cc(-c4cnc(N5CCOCC5)c(C#N)c4)ncn3)cccc12` [Compound 946], for which the Ki is < 30 nM.

As for `CC(CNc1cc(-c2cnc3c(cnn3CCO)c2)ncn1)c1cccc2nccnc12` (centres unmarked) [Compound 401], the Ki is < 30 nM.

For `CNC(=O)c1ccnc2c([C@H](C)CNc3cc(-c4cnc(N5CCC(O)CC5)nc4)ncn3)cccc12` [Compound 729], the Ki was < 30 nM.

With `CNC(=O)c1ccnc2c([C@H](C)CNc3cc(-c4cnc(C)c(F)c4)ncn3)cccc12` [Compound 972], the Ki was < 30 nM.

As to `CC(CNc1cc(-c2cnc3c(cnn3CCO)c2)ncn1)c1cncc2c1OCC2` (centres unmarked) [Compound 419], the Ki is < 30 nM.

For the molecule `CNC(=O)c1c(F)cnc2c([C@H](C)CNc3cc(-c4ccc(C5CC5)nc4)ncn3)cccc12` [Compound 857], the Ki is < 30 nM.

As to `CNC(=O)c1ccnc2c([C@H](C)CNc3cc(-c4cnc(C(C)(C)OC)nc4)ncn3)ccc(F)c12` [Compound 929], the Ki is < 30 nM.

Consider `COc1ccc(Br)cc1C(C)CNc1cc(-c2ccc(C)nc2)ncn1` (centres unmarked) [Compound 245], for which the Ki is < 30 nM.

Consider `CCNC(=O)c1ccnc2c([C@H](C)CNc3cc(-c4ccc(C)nc4)ncn3)cccc12` [Compound 545], for which the Ki was < 30 nM.

On to `COc1cc(C(=O)NCC(F)F)ccc1C(C)CNc1cc(-c2ccc(C)nc2)ncn1` (centres unmarked) [Compound 296], for which the Ki was < 30 nM.

On to `Cc1ccc(-c2cc(NC[C@@H](C)c3cccc4c3OC(CO)C4)ncn2)cn1` (single isomer, unassigned) [Compound 538], for which the Ki is < 30 nM.

`COc1cc(C(=O)NO)ccc1C(C)CNc1cc(-c2ccc(C)nc2)ncn1` (centres unmarked) [Compound 156]: the Ki was < 30 nM.

As to `CNC(=O)c1ccnc2c([C@H](C)CNc3cc(-c4ccc(OC)nc4)ncn3)cccc12` [Compound 615], the Ki is < 30 nM.

As to `Cc1ccc(-c2cc(NC[C@@H](C)c3ccnc4c3OCCC4)ncn2)cn1` [Compound 535], the Ki was < 30 nM.

With `CNC(=O)c1ccnc2c([C@H](C)CNc3cc(-c4cncc(C)c4)ncn3)cccc12` [Compound 792], the Ki is < 30 nM.

Turning to `CNC(=O)c1ccnc2c([C@H](C)CNc3cc(-c4cc(OC)nc(OC)c4)ncn3)cccc12` [Compound 889], the Ki was < 30 nM.

Turning to `CNC(=O)c1ccnc2c([C@H](C)CNc3cc(-c4cnc(NC(C)C)nc4)ncn3)cccc12` [Compound 618], the Ki was < 30 nM.

`CNC(=O)c1ccnc2c([C@H](C)CNc3cc(-c4cncc(C(C)(C)O)c4)ncn3)cccc12` [Compound 879]: the Ki is < 30 nM.

For `CNC(=O)c1c(F)cnc2c([C@H](C)CNc3cc(-c4ccc(C(C)C)nc4)ncn3)cccc12` [Compound 858], the Ki was < 30 nM.

In the case of `CNC(=O)c1ccnc2c([C@H](C)CNc3cc(-c4cnc(NC)nc4)ncn3)ccc(F)c12` [Compound 623], the Ki is < 30 nM.

Consider `CNC(=O)c1c(F)cnc2c([C@H](C)CNc3cc(-c4cnc(C)nc4)ncn3)cccc12` [Compound 636], for which the Ki was < 30 nM.

For the molecule `CNC(=O)c1ccc(C(C)CNc2cc(-c3cnc4c(cnn4C[C@@H](O)CO)c3)ncn2)c(OC)c1` (some centres unmarked) [Compound 225], the Ki was < 30 nM.

`CNC(=O)c1ccnc2c([C@H](C)CNc3cc(-c4ccc(N5CCOCC5)nc4)ncn3)cccc12` [Compound 641]: the Ki was < 30 nM.

Take `CNC(=O)c1ccc(C(C)CNc2cc(-c3ccc4c(c3)c(C)nn4CCO)ncn2)c(OC)c1` (centres unmarked) [Compound 272]: the Ki was < 30 nM.

For `CNC(=O)c1ccnc2c([C@H](C)CNc3cc(-c4cnc(C5CCOCC5)nc4)ncn3)ccc(F)c12` [Compound 832], the Ki is < 30 nM.

As for `C[C@H](CNc1cc(-c2ccc(N3CCN(C)CC3)nc2)ncn1)c1cccc2c1OCC2` [Compound 132], the Ki was < 30 nM.

For the molecule `CNC(=O)c1ccnc2c([C@H](C)CNc3cc(-c4cnc(NC)c(C#N)c4)ncn3)cccc12` [Compound 955], the Ki was < 30 nM.

`CNC(=O)c1ccc([C@H](C)CNc2cc(-c3ccc(CN)cc3)ncn2)c(OC)c1` [Compound 351]: the inhibition constant Ki is < 30 nM.

On to `CNC(=O)c1ccc([C@H](C)CNc2cc(-c3ccc4c(c3)CC(=O)N4)ncn2)c(OC)c1` [Compound 310], for which the Ki was < 30 nM.
